The target of one assay is rat SUR2A (Rattus norvegicus, UniProt Q63563). Briefly: In vitro binding affinity to rodent KATP channels: SUR2A ([3H]P1075 / [3H]glibenclamide displacement, COS cell membranes). On the procedure:
Therefore, two strategies can be used to detect binding to the sulfonylurea site on SUR2A.
Membranes from COS-cells transiently expressing rat SUR2A were incubated in the presence of the radioligands with increasing concentrations of test compounds as described above. […] For each test compound four displacement curves were measured (displacement of [^3H]P1075 from the rat isoform of the wild type receptor and displacement of [^3H]glibenclamide from the rat isoform of SUR2AY1205S). Per curve 9-15 distinct concentrations were tested covering the relevant range. All measurements were repeated at least 5 times in independent experiments.
(§1) [^3H]glibenclamide (specific activity 51 Ci mmol^−1) was obtained from NEN (Dreieich, Germany). Where needed, stock solutions were prepared in dimethylsulfoxide with a final solvent concentration in the media below 1%.
(§2) SUR- or Kir6.x isoforms were used either subcloned in the pcDNA (hamster SUR1, mouse Kir6.2) or pCMV vector (rat SUR2A, SUR2B).
(§3) For transfection, the cells were incubated 4 hours in a Tris-buffered salt solution containing DNA (5-10 μg/ml) plus DEAE-dextran (1 mg/ml), 2 min in HEPES-buffered salt solution plus dimethylsulfoxide (10%) and 4 hours in DMEM-HG plus chloroquine (100 μM). Cells were then returned to DMEM-HG plus 10% FCS. […] For binding experiments, resuspended membranes (final protein concentration 5-50 μg/ml) were incubated in “Tris-buffer” (50 mM, pH 7.4) containing either [^3H]glibenclamide (final concentration 0.3 nM or 3 nM and nonspecific binding defined by 100 nM or 1 μM glibenclamide for SUR1 or SUR2Y1205S-isoforms, respectively) or [^3H]P1075 (final concentration 3 nM, nonspecific binding defined by 100 μM pinacidil) and increasing concentrations of the test compounds. The free Mg^2+ concentration were kept close to 0.7 mM. […] Incubations were carried out for 1 h at room temperature and were terminated by rapid filtration through Whatman GF/B filters.
(§4) The inhibition constant (Ki value) of the test substances was calculated from the respective IC50 value, and was stated as the negative logarithmic value thereof (pKi).

The target of a further assay is T1, hamster SUR1 (Cricetus cricetus, UniProt Q09427).
T1 construct: expressed in transfected cells; host or cells: COS-1 cells, transient (pcDNA vector)
Briefly: In vitro binding affinity to rodent KATP channels: SUR1 ([3H]glibenclamide displacement, COS cell membranes). On the procedure:
1. In Vitro Binding Affinity of the Test Compounds to Rodent KATP Channels
Competitive binding experiments were performed to characterize the affinity of the test compounds for the binding sites for sulfonylureas and KATP channel openers (KCOS) on hamster SUR1. To assess the affinity for the sulfonylurea site, membranes from COS-cells transiently expressing hamster SUR1 were incubated in the presence of [^3H]glibenclamide with increasing concentrations of test compounds. […] For each test compound four displacement curves were measured (+/−MgATP from the human and hamster isoform). Per curve 9-15 distinct concentrations were tested covering the relevant range. All measurements were repeated at least 5 times in independent experiments.
as §1, §2, §3, §4

The mark [1] stands for this setting: hamster SUR1 in COS cell membranes, read-out: Affinity to SUR 1 (converted).

Structures are written as SMILES. Where two headings read alike, the source gives them in different places.

By pKi is commonly meant the Ki on a negative log10 scale, so that one unit is a factor of ten.

T1 sequence (Q09427 whole entry): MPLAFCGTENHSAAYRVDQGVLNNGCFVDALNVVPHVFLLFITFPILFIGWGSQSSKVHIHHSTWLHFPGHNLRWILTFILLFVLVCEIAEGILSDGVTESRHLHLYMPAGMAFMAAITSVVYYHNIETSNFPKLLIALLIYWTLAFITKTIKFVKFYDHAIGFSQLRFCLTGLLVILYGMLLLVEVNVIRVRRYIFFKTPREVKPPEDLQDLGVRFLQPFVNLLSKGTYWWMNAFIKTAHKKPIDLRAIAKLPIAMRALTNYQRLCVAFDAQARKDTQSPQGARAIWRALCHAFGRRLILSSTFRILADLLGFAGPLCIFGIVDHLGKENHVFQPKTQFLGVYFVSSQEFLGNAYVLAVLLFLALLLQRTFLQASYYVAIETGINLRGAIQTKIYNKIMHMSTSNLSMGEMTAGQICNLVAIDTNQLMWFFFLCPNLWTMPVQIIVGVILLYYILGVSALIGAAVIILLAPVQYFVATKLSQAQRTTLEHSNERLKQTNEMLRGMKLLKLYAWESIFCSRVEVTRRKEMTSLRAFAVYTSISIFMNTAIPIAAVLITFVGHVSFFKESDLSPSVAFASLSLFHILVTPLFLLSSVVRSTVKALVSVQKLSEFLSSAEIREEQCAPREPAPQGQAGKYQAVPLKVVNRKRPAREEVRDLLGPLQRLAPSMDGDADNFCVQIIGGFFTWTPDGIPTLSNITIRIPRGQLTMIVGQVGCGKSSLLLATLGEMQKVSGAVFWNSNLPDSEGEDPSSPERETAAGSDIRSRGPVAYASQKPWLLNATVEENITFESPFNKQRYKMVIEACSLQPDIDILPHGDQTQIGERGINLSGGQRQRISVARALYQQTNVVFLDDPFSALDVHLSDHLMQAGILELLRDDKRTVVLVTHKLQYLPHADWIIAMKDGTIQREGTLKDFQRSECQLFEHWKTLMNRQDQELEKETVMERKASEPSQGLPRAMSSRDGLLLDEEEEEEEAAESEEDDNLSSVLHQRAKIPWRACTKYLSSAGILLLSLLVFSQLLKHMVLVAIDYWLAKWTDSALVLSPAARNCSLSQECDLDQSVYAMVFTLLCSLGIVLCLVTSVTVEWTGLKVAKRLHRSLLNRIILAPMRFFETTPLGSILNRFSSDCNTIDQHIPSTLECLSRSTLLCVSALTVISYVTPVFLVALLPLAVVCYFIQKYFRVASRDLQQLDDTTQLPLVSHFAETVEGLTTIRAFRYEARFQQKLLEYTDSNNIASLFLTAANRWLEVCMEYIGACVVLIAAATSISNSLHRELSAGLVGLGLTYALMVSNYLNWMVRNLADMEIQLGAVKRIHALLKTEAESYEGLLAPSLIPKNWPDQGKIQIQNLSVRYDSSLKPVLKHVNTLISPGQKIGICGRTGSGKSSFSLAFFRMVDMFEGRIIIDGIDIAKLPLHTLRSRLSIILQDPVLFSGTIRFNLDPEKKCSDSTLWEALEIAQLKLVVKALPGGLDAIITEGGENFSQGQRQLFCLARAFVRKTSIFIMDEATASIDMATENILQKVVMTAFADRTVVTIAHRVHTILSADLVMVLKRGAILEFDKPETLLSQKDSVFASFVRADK
Chain of rat SUR2A (Q63563 whole entry): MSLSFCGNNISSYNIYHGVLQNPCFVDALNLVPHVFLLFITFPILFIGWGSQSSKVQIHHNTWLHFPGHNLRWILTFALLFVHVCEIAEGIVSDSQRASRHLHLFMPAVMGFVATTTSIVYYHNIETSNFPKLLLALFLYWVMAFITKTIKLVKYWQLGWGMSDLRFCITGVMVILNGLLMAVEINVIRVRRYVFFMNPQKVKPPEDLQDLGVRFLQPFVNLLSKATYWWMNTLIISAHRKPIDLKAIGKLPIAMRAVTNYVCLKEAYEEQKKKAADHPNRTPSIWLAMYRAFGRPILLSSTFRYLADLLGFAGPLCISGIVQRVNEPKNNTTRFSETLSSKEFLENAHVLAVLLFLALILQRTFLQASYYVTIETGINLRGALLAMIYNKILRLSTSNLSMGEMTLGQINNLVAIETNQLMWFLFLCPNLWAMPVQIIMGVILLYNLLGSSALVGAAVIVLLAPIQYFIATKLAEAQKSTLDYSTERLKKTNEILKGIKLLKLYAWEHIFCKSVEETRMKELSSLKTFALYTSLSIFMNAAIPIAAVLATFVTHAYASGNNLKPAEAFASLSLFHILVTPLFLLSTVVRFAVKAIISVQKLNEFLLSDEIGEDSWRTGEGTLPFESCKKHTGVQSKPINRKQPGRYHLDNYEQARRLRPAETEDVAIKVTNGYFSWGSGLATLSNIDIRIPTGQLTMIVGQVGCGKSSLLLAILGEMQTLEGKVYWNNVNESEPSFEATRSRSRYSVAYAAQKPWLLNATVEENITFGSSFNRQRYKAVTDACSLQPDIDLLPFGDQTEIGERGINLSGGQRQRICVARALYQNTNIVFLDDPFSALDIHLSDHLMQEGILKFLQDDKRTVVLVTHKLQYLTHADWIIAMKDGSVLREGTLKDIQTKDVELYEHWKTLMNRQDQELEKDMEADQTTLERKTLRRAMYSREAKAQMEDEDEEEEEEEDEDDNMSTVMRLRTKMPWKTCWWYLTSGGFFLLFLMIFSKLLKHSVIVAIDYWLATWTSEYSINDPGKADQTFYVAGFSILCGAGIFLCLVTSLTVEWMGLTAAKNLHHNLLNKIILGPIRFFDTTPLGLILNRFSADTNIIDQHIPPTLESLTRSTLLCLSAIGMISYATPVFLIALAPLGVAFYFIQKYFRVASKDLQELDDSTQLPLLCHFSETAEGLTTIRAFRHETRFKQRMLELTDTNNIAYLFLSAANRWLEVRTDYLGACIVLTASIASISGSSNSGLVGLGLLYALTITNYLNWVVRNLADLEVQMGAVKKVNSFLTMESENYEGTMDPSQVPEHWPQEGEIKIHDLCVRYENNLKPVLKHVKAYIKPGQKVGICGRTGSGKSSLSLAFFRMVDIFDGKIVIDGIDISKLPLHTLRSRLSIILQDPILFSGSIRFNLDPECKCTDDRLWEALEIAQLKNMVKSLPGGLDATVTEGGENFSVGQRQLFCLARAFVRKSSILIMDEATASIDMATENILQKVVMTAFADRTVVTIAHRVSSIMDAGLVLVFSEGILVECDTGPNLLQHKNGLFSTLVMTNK

Take `CS(=O)(=O)C(=C1CN(C(c2ccc(Cl)cc2)c2ccc(Cl)cc2)C1)c1cc(F)cc(F)c1` [1-[Bis-(4-chloro-phenyl)-methyl]-3-[(3,5-difluoro-phenyl)-methanesulfonyl-methylene]-azetidine, reference compound]: at rat SUR2A, the pKi is recorded as 5.1. Moreover, the Ki at hamster SUR1 (setting [1]) was 5.01 µM.
Turning to `CCCCCOc1c(OC)ccc2cc(C(=O)NCc3ccc4c(c3)OCO4)c(=O)[nH]c12` [JTE-907, 7-Methoxy-2-oxo-8-pentyloxy-1,2-di-hydro-quinoline-3-carboxylic acid (benzo[1,3]dioxol-5-ylmethyl)-amide, reference compound], the Ki at hamster SUR1 (setting [1]) was 0.794 µM.
In the case of `CNC(=NS(=O)(=O)N1CCCCC1)N1C[C@H](c2ccccc2)C(c2ccc(Cl)cc2)=N1` [Piperidine-1-sulfonic acid [3-(4-chloro-phenyl)-4-phenyl-4,5-dihydro-pyrazol-1-yl]-methylamino-methyleneamide], the Ki at hamster SUR1 (setting [1]) was 1.58 µM.
Regarding `O=C(NS(=O)(=O)c1ccc(Cl)cc1)N1CC(c2ccccc2)C(c2ccc(Cl)cc2)=N1` (centres unmarked) [4-Chloro-N-[3-(4-chloro-phenyl)-4-phenyl-4,5-dihydro-pyrazole-1-carbonyl]-benzenesulfonamide], the pKi on rat SUR2A worked out at 4.8. Further, the Ki on hamster SUR1 (setting [1]) was 3.16 µM.
For `O=S(=O)(N=C(NC1CCNCC1)N1CC(c2ccccc2)C(c2ccc(Cl)cc2)=N1)c1ccc(Cl)cc1` (centres unmarked) [4-Chloro-N-[[3-(4-chloro-phenyl)-4-phenyl-4,5-dihydro-pyrazol-1-yl]-(piperidin-4-ylamino)-methylene]-benzenesulfonamide] the same measures were 4.6 and 31.6 µM.
Molecule `O=C(NN1CCCCC1)c1nc(-c2ccc(Cl)cc2Cl)n(-c2ccc(Br)cc2)c1Cl` [1-(4-Bromo-phenyl)-5-chloro-2-(2,4-dichloro-phenyl)-1H-imidazole-4-carboxylic acid piperidin-1-ylamide] returned a pKi on rat SUR2A of 5.5. In addition, the Ki on hamster SUR1 (setting [1]) is 3.98 µM.
Consider `Cc1c(NC(=O)c2ccccc2)nc(-c2ccc(Cl)cc2Cl)n1-c1ccc(Cl)cc1` [N-[1-(4-Chloro-phenyl)-2-(2,4-dichloro-phenyl)-5-methyl-1H-imidazol-4-yl]-benzamide], for which, at hamster SUR1 (setting [1]), the Ki is 2 µM.
Still for that read-out and setting: the value for `CN/C(=N\S(=O)(=O)c1ccc(Cl)cc1)N1C[C@@H](c2ccccc2)C(c2ccc(Cl)cc2)=N1` [4-Chloro-N-{[3-(4-chloro-phenyl)-4-phenyl-4,5-dihydro-pyrazol-1-yl]-methylamino-methylene}-benzenesulfonamide] was 1 µM; that for `CCCCCCC(C)(C)c1ccc([C@@H]2C[C@H](O)CC[C@@H]2CCCO)c(O)c1` (stereo in doubt) [CP55940-entantiomer, 5-(1,1-Dimethyl-heptyl)-2-[5-hydroxy-2-(3-hydroxy-propyl)-cyclohexyl]-phenol, reference compound] was 5.01 µM.
On the same count and under the same terms, the value for `CCCCCCC(C)(C)c1cc(O)c2c(c1)OC(C)(C)[C@@H]1CC=C(CO)CC21` (some centres unmarked) [HU-210, 3-(1,1-Dimethyl-heptyl)-9-hydroxymethyl-6,6-dimethyl-6a,7,10,10a-tetra hydro-6H-enzo[c]chromen-1-ol, reference compound] was 0.794 µM.
Take `CCCCCCC(C)(C)c1cc(OC)c(C2C=C(CO)[C@H]3C[C@@H]2C3(C)C)c(OC)c1` (stereo in doubt) [HU308, {4-[4-(1,1-Dimethyl-heptyl)-2,6-dimethoxy-phenyl]-6,6-dimethyl-bicyclo[3.1.1]hept-2-en-2-yl}-methanol, reference compound]: the Ki at hamster SUR1 was 0.398 µM.
For `CN1CCCC1CN/C(=N\S(=O)(=O)c1ccc(Cl)cc1)N1CC(c2ccccc2)C(c2ccc(Cl)cc2)=N1` (centres unmarked) [4-Chloro-N-{[3-(4-chloro-phenyl)-4-phenyl-4,5-dihydro-pyrazol-1-yl]-[(1-methyl-pyrrolidin-2-ylmethyl)-amino]-methylene}-benzenesulfonamide], the pKi on rat SUR2A came to 5.1.
Consider `Cc1ccc(Cn2nc(C(=O)N[C@@H]3C(C)(C)[C@@H]4CC[C@@]3(C)C4)cc2-c2ccc(Cl)c(C)c2)cc1` [SR 144528, reference compound], for which the Ki on hamster SUR1 (setting [1]) is 0.126 µM.

Source of the values: US20070254863A1 (priority 2006, published 2007).
